This is an account of results in patent US9561231B2 (AbbVie Inc., priority 2012, dated 2017).

Where two headings read alike, the source gives them in different places. Marks after values point to notes of the source that are not given here.

Assay [1] concerns LPS induced IL-6 production. Kind of assay: LPS (lipopolysaccharide) induced IL-6 production mouse assay. To be noted: 1 h before LPS 2.5 mg/kg i.p., serum IL-6 2 h after LPS, p<0.05.
Experimental: Severe combined immunodeficient female mice (5 per group) received an intraperitoneal challenge of lipopolysaccharide (2.5 mg/kg, L2630 E. coli 0111:B4) one hour after oral administration of compounds. Mice were euthanized 2 hours after lipopolysaccharide injection, blood was removed by cardiac puncture, and then the serum harvested from the blood samples was frozen at −80° C. On the day of the assay the serum samples were brought to room temperature and then diluted 1:20 in phosphate-buffered saline containing 2% bovine serum albumin. Interleukin-6 measurements were performed using a cytokine assay from Meso Scale Discovery (Gaithersburg, Md.) for mouse serum analysis according to the manufacturer's protocol and read on a SECTOR Imager 6000 (Meso Scale Discovery, Gaithersburg, Md.) instrument. Statistical analysis was performed using Prism software (version 5.0) incorporating Dunnett's one way ANOVA. The IL-6 mean and standard deviation of the group of vehicle treated animals were compared with the IL-6 mean and standard deviation of the group treated with drug. A p value <0.05 means that there is less than a 5% probability that the mean values in the two groups are equal.
The target of assay [2] is T1, second (BD2: amino acids E352-E168) bromodomain of BRD4 (Homo sapiens, UniProt O60885).
T1 construct: protocol
Kind of assay: TR-FRET bromodomain binding assay, BRD4 BD2. The settings on record: Ki calculated from IC50, probe Kd and probe concentration, read-out: TR-FRET Binding Ki: BRD4 (BDII_E352-M457). The method in brief: (§1)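 His-tagged BRD4 BD1 (K57-E168) or BD2 ([…]) displacing an Alexa647-labelled BET-inhibitor probe in 20 mM sodium phosphate pH 6.0, 50 mM NaCl, 1 mM EDTA, 0.01% Triton X-100, 1 mM DTT.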

Assay [3] concerns the target T2, first (BD1: amino acids K57-E168) bromodomain of BRD4 (Homo sapiens, UniProt O60885).
T2 construct: His-tagged first (BD1: amino acids K57-E168)
Kind of assay: TR-FRET bromodomain binding assay, BRD4 BD1. To be noted: Ki calculated from IC50, probe Kd and probe concentration, read-out: TR-FRET Binding Ki: BRD4 (BDI_K57-E168). The method in brief: as §1

For assay [4], the system named is breast cancer cell line MX-1. Put plainly: MX-1 cell line proliferation assay (3-day). The format is cell-based. To be noted: Homo sapiens, MX1, MX-1 cells, Cell Titer Glo, read-out: Cellular proliferation: EC50. The method in brief: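 EC50 derived by sigmoidal fitting of Cell Titer Glo signal relative to DMSO controls. Compound, 3 μM down to 0.0001 μM final in 3-fold steps, was added to adhered MX-1 cells (5000/well, RPMI + 10% FBS) for a 3-day incubation at 37° C.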
(In general: In ATP-based viability assays light output follows the ATP content of the culture.)

In assay [5] the test system is MX-1 human breast cancer xenograft. Put plainly: Xenograft tumor growth inhibition assay: MX-1. The settings on record: for % TGD (tumor growth delay): QDx21, endpoint 1000 mm^3; for % TGI (tumor growth inhibition): QDx21, tumor volumes study day 27.
Experimental: The effect of example compounds to inhibit growth of human tumor xenografts implanted in mice was evaluated. Briefly, cells obtained from culture (MV4-11 and OPM-2) or tumor brie (MX-1) were suspended in cell culture medium (MEM, Suspension, no Calcium, no Glutamine, Life Technologies Corporation) containing Matrigel (phenol red free, Becton Dickinson Biosciences Discovery Labware) and inoculated subcutaneously (approximately 5 million per site) into the right hind flank of SCID-beige (MV4-11 and OPM-2) or SCID (MX-1) female mice (Charles Rivers Labs) on study day 0.
Tumors were measured with a pair of calipers twice a week starting at the time of size match and tumor volumes were calculated according to the formula V=L×W^2/2 (V: volume, mm^3; L: length, mm. W: width, mm). Tumor volume was measured throughout the treatment period or until the mean tumor volume in each group reached an endpoint of >1000 mm^3.
Where [6] appears, read: TR-FRET assay protocol (A-G, compound concentration range).
[7] abbreviates: TR-FRET assay protocol (D, E or G) per compound.

As for `CCS(=O)(=O)Nc1ccc(Oc2ccc(F)cc2F)c(-c2cn(C)c(=O)cc2OC2CCC2)c1` [Example 367, N-{3-[4-(cyclobutyloxy)-1-methyl-6-oxo-1,6-dihydropyridin-3-yl]-4-(2,4-difluorophenoxy)phenyl}ethanesulfonamide], in assay [1] (3 mg/kg oral), the “Inhibition of LPS induced IL-6 production, % inhibition” value (shortened to “Inhibition … % inhibition”) was 80.0 @ 3 mg/kg %. The inhibitory constant (Ki) is 0.528 nM in assay [2] (setting [6]) and 2.11 nM in assay [3] (setting [6]). Further, the EC50 in assay [4] (72 h incubation) was found to be 18.9 nM.

For the compound `CCS(=O)(=O)Nc1ccc(Oc2ccc(F)cc2F)c(-c2cn(C)c(=O)cc2OCC(F)(F)F)c1` [Example 293, N-{4-(2,4-difluorophenoxy)-3-[1-methyl-6-oxo-4-(2,2,2-trifluoroethoxy)-1,6-dihydropyridin-3-yl]phenyl}ethanesulfonamide], the “Inhibition … % inhibition” value in assay [1] (3 mg/kg oral) was 71.0 @ 3 mg/kg %. Also, the figures for the inhibition constant (Ki) in assay [2] (setting [6]) and in assay [3] (setting [6]) were 5.99 nM and 37.1 nM, respectively. In addition, the “% TGD (tumor growth delay)” value in assay [5] (1 mg/kg/day PO) is recorded as 11%; in assay [5] (3 mg/kg/day PO), 42%. The “% TGI (tumor growth inhibition)” value in assay [5] (1 mg/kg/day PO) is recorded as 6%; in assay [5] (3 mg/kg/day PO), 56* %. In assay [4] (72 h incubation), the EC50 worked out at 115 nM.

For `COc1cc(=O)n(C)nc1-c1cc(NS(C)(=O)=O)ccc1Oc1ccccc1` [Example 22, N-[3-(4-methoxy-1-methyl-6-oxo-1,6-dihydropyridazin-3-yl)-4-phenoxyphenyl]methanesulfonamide], the “Inhibition … % inhibition” value in assay [1] (50 mg/kg oral) was 53.9 @ 50 mg/kg %. Also, the results for the Ki in assay [2] (setting [6]) and in assay [3] (setting [6]) were 51.9 nM and 258 nM, respectively. Also, the EC50 in assay [4] (72 h incubation) came out at 730 nM.

For `CCCOc1cc(=O)n(C)cc1-c1cc(NS(=O)(=O)CC)ccc1Oc1ccc(F)cc1F` [Example 292, N-[4-(2,4-difluorophenoxy)-3-(1-methyl-6-oxo-4-propoxy-1,6-dihydropyridin-3-yl)phenyl]ethanesulfonamide], the “Inhibition … % inhibition” value in assay [1] (3 mg/kg oral) is 58.0 @ 3 mg/kg %. Also, the Ki in assay [2] (setting [6]) is 1.73 nM; in assay [3] (setting [6]), 4.97 nM. In assay [4] (72 h incubation), the EC50 was determined as 45 nM.

`Cc1cc(Oc2ccccc2)c(-c2ccc(=O)n(C)c2)cc1NS(C)(=O)=O` [Example 257, N-[2-methyl-5-(1-methyl-6-oxo-1,6-dihydropyridin-3-yl)-4-phenoxyphenyl]methanesulfonamide]: the “Inhibition … % inhibition” value in assay [1] (30 mg/kg oral) was 49.7 @ 30 mg/kg %. Moreover, the Ki in assay [2] (setting [6]) was 31.6 nM; in assay [3] (setting [6]) it was 18.1 nM. Moreover, the EC50 in assay [4] (72 h incubation) is 173 nM.

Turning to `CCOc1cc(=O)n(C)cc1-c1cc(S(=O)(=O)CC)ccc1Oc1ccc(F)cc1F` [Example 375, 5-[2-(2,4-difluorophenoxy)-5-(ethylsulfonyl)phenyl]-4-ethoxy-1-methylpyridin-2(1H)-one], in assay [1] (3 mg/kg oral), the “Inhibition … % inhibition” value is on record as 84.4 @ 3 mg/kg %. For the same compound, the Ki in assay [2] (setting [7]) was 3.22 nM; in assay [3] (setting [7]), 12.9 nM. Also, the EC50 in assay [4] (72 hours with compound) is 40.2 nM.

Turning to `CCNc1cc(=O)n(C)cc1-c1cc(NS(=O)(=O)CC)ccc1Oc1ccc(F)cc1F` [Example 363, N-{4-(2,4-difluorophenoxy)-3-[4-(ethylamino)-1-methyl-6-oxo-1,6-dihydropyridin-3-yl]phenyl}ethanesulfonamide], in assay [1] (3 mg/kg oral), the “Inhibition … % inhibition” value was 42.7 @ 3 mg/kg %. For the same compound, the Ki in assay [2] (setting [6]) was 1.53 nM; in assay [3] (setting [6]) it was 4.94 nM. Moreover, in assay [4] (72 h incubation), the EC50 was determined as 29.6 nM.

Regarding `CCOc1cc(=O)n(C)cc1-c1cc(NS(=O)(=O)CC)ccc1Oc1ccc(OC(F)(F)F)cc1` [Example 387, N-{3-(4-ethoxy-1-methyl-6-oxo-1,6-dihydropyridin-3-yl)-4-[4-(trifluoromethoxy)phenoxy]phenyl}ethanesulfonamide], the “Inhibition … % inhibition” value in assay [1] (3 mg/kg oral) was 54.3 @ 3 mg/kg %. The values for the Ki in assay [2] (setting [7]) and in assay [3] (setting [7]) were 7.87 nM and 69.1 nM, respectively. Moreover, the EC50 in assay [4] (72 hours with compound) came out at 61.8 nM.

Regarding `CCOc1cc(=O)n(C)cc1-c1cc(S(=O)(=O)C2CC2)ccc1Oc1ccc(F)cc1F` [Example 371, 5-[5-(cyclopropylsulfonyl)-2-(2,4-difluorophenoxy)phenyl]-4-ethoxy-1-methylpyridin-2(1H)-one], the “Inhibition … % inhibition” value in assay [1] (3 mg/kg oral) is recorded as 57.6 @ 3 mg/kg %. In addition, the results for the Ki in assay [2] (setting [6]) and in assay [3] (setting [6]) were 2.29 nM and 8.73 nM, respectively. The EC50 in assay [4] (72 h incubation) is 40.9 nM.

For `CCS(=O)(=O)Nc1ccc(Oc2ccc(F)cc2F)c(-c2cn(C)c(=O)cc2OCC2(C)CC2(F)F)c1` (stereo not drawn) [Example 335, N-[3-{4-[(2,2-difluoro-1-methylcyclopropyl)methoxy]-1-methyl-6-oxo-1,6-dihydropyridin-3-yl}-4-(2,4-difluorophenoxy)phenyl]ethanesulfonamide], the “Inhibition … % inhibition” value in assay [1] (3 mg/kg oral) is recorded as 50.9 @ 3 mg/kg %. For the same compound, the results for the Ki in assay [2] (setting [6]) and in assay [3] (setting [6]) were 15.1 nM and 95.3 nM, respectively. Further, the EC50 in assay [4] (72 h incubation) is 239 nM.

As for `CCOc1cc(=O)n(C)cc1-c1cc(NS(=O)(=O)CC)ccc1Oc1ccc(C#N)cc1` [Example 358, N-[4-(4-cyanophenoxy)-3-(4-ethoxy-1-methyl-6-oxo-1,6-dihydropyridin-3-yl)phenyl]ethanesulfonamide], in assay [1] (3 mg/kg oral), the “Inhibition … % inhibition” value is 60.5 @ 3 mg/kg %. Moreover, the Ki in assay [2] (setting [6]) is 7.61 nM; in assay [3] (setting [6]) it was 7.8 nM. Moreover, the EC50 in assay [4] (72 h incubation) was 52.6 nM.

For the compound `CCOc1cc(=O)n(C)cc1-c1cc(NS(=O)(=O)CC)ccc1Oc1ccc(F)cc1F` [Example 285, N-[4-(2,4-difluorophenoxy)-3-(4-ethoxy-1-methyl-6-oxo-1,6-dihydropyridin-3-yl)phenyl]ethanesulfonamide], in assay [1] (3 mg/kg oral), the “Inhibition … % inhibition” value is recorded as 84.0 @ 3 mg/kg %. Besides, in assay [5] (3 mg/kg/day PO), the “% TGD (tumor growth delay)” value is 140^d** % and the “% TGI (tumor growth inhibition)” value was 84^d*** %.

`CCS(=O)(=O)Nc1ccc(Oc2ccc(F)cc2F)c(-c2ccc(=O)n(C)c2)c1` [Example 241, N-[4-(2,4-difluorophenoxy)-3-(1-methyl-6-oxo-1,6-dihydropyridin-3-yl)phenyl]ethanesulfonamide]: in assay [1] (3 mg/kg oral), the “Inhibition … % inhibition” value is recorded as 73.9 @ 3 mg/kg %. Also, the Ki was 27.1 nM in assay [2] (setting [6]) and 34.6 nM in assay [3] (setting [6]). In addition, the EC50 in assay [4] (72 h incubation) stood at 181 nM.

Turning to `CCOc1cc(=O)n(C)cc1-c1cc(S(=O)(=O)CC)ccc1OCC1CC1(F)F` (stereo not drawn) [Example 368, 5-{2-[(2,2-difluorocyclopropyl)methoxy]-5-(ethylsulfonyl)phenyl}-4-ethoxy-1-methylpyridin-2(1H)-one], the “Inhibition … % inhibition” value in assay [1] (3 mg/kg oral) is 72.4 @ 3 mg/kg %. The Ki in assay [2] (setting [6]) is 28.6 nM; in assay [3] (setting [6]), 19.6 nM. Besides, the EC50 in assay [4] (72 h incubation) was 96.2 nM.

On to `CCOc1cc(=O)n(C)cc1-c1cc(S(=O)(=O)C(C)C)ccc1Oc1ccc(F)cc1F` [Example 369, 5-[2-(2,4-difluorophenoxy)-5-(propan-2-ylsulfonyl)phenyl]-4-ethoxy-1-methylpyridin-2(1H)-one], for which the “Inhibition … % inhibition” value in assay [1] (3 mg/kg oral) is 38.0 @ 3 mg/kg %. The values for the Ki in assay [2] (setting [6]) and in assay [3] (setting [6]) were 2.42 nM and 5.29 nM, respectively. Besides, in assay [4] (72 h incubation), the EC50 was 28.1 nM.

The term Ki denotes a dissociation constant, usually derived from enzyme kinetics or from competition with a known ligand.
